Key:
Conditions in all cases: isolated protein; call rule not given here
Albumin [1] = target: T1, Albumin (Homo sapiens, UniProt P02768); experiment: Binding affinity to human serum albumin by tryptophan fluorescence quenching method; format: ADME
Albumin [2] = target: T1, Albumin; experiment: Binding affinity to human serum albumin intensity at 5 uM by fluorescence based drug displacement assay in presence of dansyl amide
Albumin [3] = target: T1, Albumin; experiment: Binding affinity to 130 uM human serum albumin assessed as fluorescence distribution at 2.5 uM; format: ADME
Albumin [4] = target: T1, Albumin; experiment: Binding affinity to human serum albumin by Benesi-Hildebrand method; format: ADME
Albumin [5] = target: T1, Albumin; experiment: Binding affinity to 15 uM human serum albumin assessed as fluorescence distribution at 2.5 uM; format: ADME
Albumin [6] = target: T1, Albumin; experiment: Binding affinity to 45 uM human serum albumin assessed as fluorescence distribution at 2.5 uM; format: ADME
Albumin [7] = target: T1, Albumin; experiment: Binding affinity to human serum albumin intensity at 5 uM by fluorescence based drug displacement assay in presence of dansyl sarcosine

T1 sequence (P02768 whole entry): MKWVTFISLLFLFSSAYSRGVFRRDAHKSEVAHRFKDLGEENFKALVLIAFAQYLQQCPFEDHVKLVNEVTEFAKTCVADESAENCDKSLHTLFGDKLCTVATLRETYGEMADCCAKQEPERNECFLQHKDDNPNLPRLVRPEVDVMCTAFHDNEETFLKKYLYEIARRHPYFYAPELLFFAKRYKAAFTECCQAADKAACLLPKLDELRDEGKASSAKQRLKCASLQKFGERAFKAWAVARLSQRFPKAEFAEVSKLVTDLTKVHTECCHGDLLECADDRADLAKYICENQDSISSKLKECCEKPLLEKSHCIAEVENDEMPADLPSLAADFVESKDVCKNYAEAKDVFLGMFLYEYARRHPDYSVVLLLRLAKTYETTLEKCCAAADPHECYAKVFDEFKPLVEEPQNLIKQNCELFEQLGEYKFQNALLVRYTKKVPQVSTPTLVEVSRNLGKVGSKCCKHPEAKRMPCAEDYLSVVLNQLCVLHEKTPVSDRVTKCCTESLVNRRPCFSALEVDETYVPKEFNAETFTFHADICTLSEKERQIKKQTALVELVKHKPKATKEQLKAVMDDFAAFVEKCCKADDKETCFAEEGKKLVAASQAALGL

Row | SMILES | Ka (Albumin [1]) | Activity (Albumin [2]) | Activity (Albumin [3]) | Ka (Albumin [4]) | Activity (Albumin [5]) | Activity (Albumin [6]) | Activity (Albumin [7])
1 | Cc1nc2ccccc2c(C(=O)OC2CC(C)(C)N(O)C(C)(C)C2)c1O | 9 ×10⁴ /M |  |  |  |  |  | 
2 | CC1(C)CC(OC(=O)c2cc3cc4c5c(c3oc2=O)CCCN5CCC4)CC(C)(C)N1O | 5 ×10⁴ /M | Active | 44.6% | 4.8 ×10⁴ /M | 2.9% | 28.1% | Not Active
